According to PMC6010117, “Isatin: a privileged scaffold for the design of carbonic anhydrase inhibitors” (Journal of Enzyme Inhibition and Medicinal Chemistry, 2016):

What was measured:
Experiment in all cases: CA inhibition assay, Verpoorte method at […] nm, Lineweaver-Burk
Type in all cases: biochemical
hCA IX = molecular target: T1, hCA IX (Homo sapiens, UniProt Q16790)
T1 construct: gene CA9; not described

hCA I = molecular target: T2, hCA I (Homo sapiens, UniProt P00915)
T2 construct: gene CA1
T2 sequence (P00915 2-261): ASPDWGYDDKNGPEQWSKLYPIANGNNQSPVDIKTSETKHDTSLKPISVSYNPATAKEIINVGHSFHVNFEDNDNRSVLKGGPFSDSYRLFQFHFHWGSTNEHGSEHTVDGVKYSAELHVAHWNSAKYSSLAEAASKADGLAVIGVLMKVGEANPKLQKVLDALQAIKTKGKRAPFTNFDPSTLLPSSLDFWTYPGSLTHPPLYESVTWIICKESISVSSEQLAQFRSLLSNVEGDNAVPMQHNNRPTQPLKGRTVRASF

hCA II = molecular target: T3, hCA II (Homo sapiens, UniProt P00918)
T3 construct: gene CA2

hCA XII = molecular target: T4, hCA XII (Homo sapiens, UniProt O43570)
T4 construct: gene CA12; not described
T4 sequence (O43570 25-354): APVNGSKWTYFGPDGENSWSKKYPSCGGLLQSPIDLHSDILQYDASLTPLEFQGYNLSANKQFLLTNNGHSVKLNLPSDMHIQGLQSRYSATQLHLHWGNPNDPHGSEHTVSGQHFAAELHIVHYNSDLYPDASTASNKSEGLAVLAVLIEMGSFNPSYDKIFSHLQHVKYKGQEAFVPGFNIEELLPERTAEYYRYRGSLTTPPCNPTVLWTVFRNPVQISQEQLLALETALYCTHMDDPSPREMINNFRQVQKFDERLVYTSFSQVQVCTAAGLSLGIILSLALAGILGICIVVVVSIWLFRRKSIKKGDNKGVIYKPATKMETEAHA

SMILES | Ki (hCA IX) [nM] | Ki (hCA I) [nM] | Ki (hCA II) [nM] | Ki (hCA XII) [nM]
CN1C(=O)C(=C2C(=O)Nc3ccc(Cl)cc32)SC1=Nc1ccc(S(N)(=O)=O)cc1 [c, EMAC 10020 c] | 55.7 | 958 | 8300 | 865
CN1C(=O)C(=C2C(=O)Nc3c(Br)cccc32)SC1=Nc1ccc(S(N)(=O)=O)cc1 [o, EMAC 10020 o] | 126 | 877 | 8780 | 824
CN1C(=O)C(=C2C(=O)Nc3ccc(C(F)(F)F)cc32)SC1=Nc1ccc(S(N)(=O)=O)cc1 [n, EMAC 10020 n] | 2660 | 945 | 5720 | 873

Stronger by Ki (hCA IX), values ahead:

Ki (hCA IX) [nM] | Ki (hCA I) [nM] | Ki (hCA II) [nM] | Ki (hCA XII) [nM] | SMILES
4.1 | 44.3 | 139 | 90.7 | CN1C(=O)C(=C2C(=O)Nc3c(F)cccc32)SC1=Nc1ccc(S(N)(=O)=O)cc1 [m, EMAC 10020 m]
50.7 | 50.3 | 274 | 85 | CN1C(=O)C(=C2C(=O)Nc3ccc(F)cc32)SC1=Nc1ccc(S(N)(=O)=O)cc1 [d, EMAC 10020 d]
3 | 87.6 | 79.1 | 440 | Cc1ccc2c(c1)C(=C1SC(=Nc3ccc(S(N)(=O)=O)cc3)N(C)C1=O)C(=O)N2 [l, EMAC 10020 l]
